{"source": "patent US12630594B2", "about": "“Allergy antigen and epitope for same” (HOYU CO., LTD., priority 2017, dated 2026)", "format_in_all_cases": "binding, human", "key": {"[1]": {"tested_on": "IgE antibodies from patients", "test": "Epitope mapping (2): overlapping 10-amino-acid peptide fragments shifted by one amino acid", "settings": "positions numbered within the 15-amino-acid epitope; serum of 5 patients", "text": "On the basis of the sequences (SEQ ID NOs: 150-154 for alpha-actinin-3, SEQ ID NO: 155 for EEF1A2 binding protein-like, SEQ ID NOs: 156 and 157 for alpha-1,4-glucan phosphorylase, SEQ ID NOs: 158 and 159 for elongation factor 2, SEQ ID NOs: 160-162 for heat shock cognate 70 kDa protein, SEQ ID NOs: 163-167 for serotransferrin, SEQ ID NOs: 168-171 for myosin binding protein H-like, SEQ ID NOs: 172-174 for desmin (fragment), SEQ ID NOs: 175-178 for capping protein (actin filament) muscle Z-line beta, SEQ ID NOs: 179-185 for myosin heavy chain, fast skeletal muscle-like, SEQ ID NO: 186 for glycogen phosphorylase, muscle form-like, SEQ ID NOs: 187-196 for myosin-binding protein C, fast-type-like, SEQ ID NO: 197 for ATP synthase subunit beta, mitochondrial, SEQ ID NO: 198 for L-lactate dehydrogenase A chain-like, SEQ ID NO: 199 for aldolase, SEQ ID NOs: 200-202 for β-enolase, and SEQ ID NOs: 203 and 204 for glyceraldehyde-3-phosphate dehydrogenase) of the peptides bound to an IgE antibody in serum in a patient-specific manner as described above in (A), a library of overlapping peptide fragments (length: 10 amino acids) was prepared using the sequences of the peptides and sequences in which sequences were added so as to flank each peptide in the amino acid sequences of allergen components (SEQ ID NO: 2 for alpha-actinin-3, SEQ ID NO: 5 for EEF1A2 binding protein-like, SEQ ID NO: 10 for alpha-1,4-glucan phosphorylase, SEQ ID NO: 19 for elongation factor 2, SEQ ID NO: 26 for heat shock cognate 70 kDa protein, SEQ ID NO: 33 for serotransferrin, SEQ ID NO: 43 for myosin binding protein H-like, SEQ ID NO: 56 for desmin (fragment), SEQ ID NO: 61 for capping protein (actin filament) muscle Z-line beta, SEQ ID NO: 70 for myosin heavy chain, fast skeletal muscle-like, SEQ ID NO: 110 for glycogen phosphorylase, muscle form-like, SEQ ID NO: 121 for myosin-binding protein C, fast-type-like, SEQ ID NO: 138 for ATP synthase subunit beta, mitochondrial, SEQ ID NO: 144 for L-lactate dehydrogenase A chain-like, SEQ ID NO: 445 for aldolase, SEQ ID NO: 446 for β-enolase, and SEQ ID NO: 447 for glyceraldehyde-3-phosphate dehydrogenase) comprising the sequences of the peptide. Epitope mapping was carried out using the library.\nThe peptides to be synthesized were shifted by one amino acid.\nThe library was prepared by the same procedure as described above in (A), and the presence or absence of binding of an IgE antibody present in the serum of a patient and a non-fish-allergic subject to each peptide fragment was measured by the same technique as described above. Amino acids at positions where the binding activity against IgE antibodies from patients were lost or decreased in the peptides shifted by one amino acid while binding activity against IgE antibodies from non-fish-allergic subjects arose were confirmed as amino acids adversely affecting the specificity of binding to IgE antibodies.\nChemiluminescence intensity in images obtained by measurement was converted into a numeric value in the same manner as in (A) using ImageQuant TL (GE Healthcare). […]"}, "[2]": {"tested_on": "IgE antibody from one patient having allergies to salmons and bastard halibut", "test": "Confirmation of epitope cross-reactivity (ELISA, FIG. 5)", "settings": "for binding of IgE antibody to peptide: serum of fish-allergic patient with symptoms to salmon and bastard halibut vs serum mixture from 4 non-fish-allergic subjects, FIG. 5", "text": "FIG. 5 is a diagram showing results of measuring […] using the sera of a fish-allergic patient and a non-fish-allergic subject as to a peptide of epitope No. 11 (SEQ ID NO: 160) having the amino acid sequence “SMVLVKMKEIAEAYL” derived from salmon heat shock cognate 70 kDa protein, and a peptide having the amino acid sequence “AMVLVKMKETAEAYL” derived from bastard halibut heat shock cognate 70 kDa protein. The numeric values on the ordinate represent absorbance for light at a wavelength of 450 nm.\nAmino acids other than particularly important amino acids in the region (SEQ ID NO: 250) important for binding, in epitope No. 11 having the amino acid sequence “SMVLVKMKEIAEAYL” (SEQ ID NO: 160) found in salmon heat shock cognate 70 kDa protein in Table 3 were defined as any given amino acid (X). NCBI was searched for proteins having the resulting amino acid sequence “EXXXXYL” (SEQ ID NO: 248). As a result, the amino acid sequence “AMVLVKMKETAEAYL” (SEQ ID NO: 451) of bastard halibut heat shock 70 kDa protein (accession number: XP_019944736.1) was identified. […]\nTo be specific, ELISA was carried out according to the following procedure. • (1) The concentrations of the biotinylated peptides were adjusted to 1 μg/mL with PBST. • (2) Each peptide solution was added at 40 μL to each well of a 384-well plate coated with streptavidin, and shaken at room temperature for one hour. […] Absorbance at 450 nm was measured.\nA peptide having this amino acid sequence “AMVLVKMKETAEAYL” of bastard halibut heat shock 70 kDa protein and a peptide having the amino acid sequence “SMVLVKMKEIAEAYL” of salmon heat shock cognate 70 kDa protein were each prepared by the same procedure as in Example 10(A), and the presence or absence of binding thereto of IgE antibodies present in the serum of a fish-allergic patient having allergy symptoms to salmon and bastard halibut and the serum of a non-fish-allergic subject (serum mixture from 4 subjects) was measured by the same technique as therein."}, "[3]": {"tested_on": "IgE antibody in the serum of a fish-allergic patient", "test": "Immunoblotting of two-dimensional electrophoresis patterns of fish meat proteins with patient serum", "settings": "for spots detected by immunoblotting, different from spots with serum of non-fish-allergic subject: proteins contained in salmon meat; for specific binding to IgE antibodies from fish-allergic patients: spots in two-dimensional electrophoresis gel of proteins in fish, patients diagnosed with immediate-type allergy", "description": "Proteins contained in fish were analyzed by the aforementioned technique to identify antigens of an allergy to fish. To be specific, proteins were extracted from fish meat and subjected to two-dimensional electrophoresis under the conditions described below.\nThe electrophoresis in the first dimension was isoelectric focusing, which was performed using isoelectric focusing gels with a gel-strip length of 5 to 10 cm and a gel pH range of 3 to 10. The pH gradient of the gels in the direction of electrophoresis was as follows: with the total gel-strip length being taken as 1, the gel-strip length up to pH 5 was “a=0.15 to 0.3”, the gel-strip length from pH 5 to 7 was “b=0.4 to 0.7”, and the gel-strip length above pH 7 was “c=0.15 to 0.3”. More specifically, the isoelectric focusing was performed using the IPG gels, Immobiline Drystrip (pH3-10NL), produced by GE Healthcare Bio-Sciences Corporation (hereinafter abbreviated as “GE”). The electrophoresis system used was IPGphor produced by GE. The maximum current of the electrophoresis system was limited to 75 μA per gel strip. The voltage program adopted to perform the first-dimensional isoelectric focusing was as follows: (1) a constant voltage step was performed at a constant voltage of 300 V until the volt-hours reached 750 Vhr (the current variation width during electrophoresis for 30 minutes before the end of this step was 5 μA); (2) the voltage was increased gradually to 1000 V for 300 Vhr; (3) the voltage was further increased gradually to 5000 V for 4500 Vhr; and then (4) the voltage was held at a constant voltage of 5000 V until the total Vhr reached 12000.\nThe electrophoresis in the second dimension was SDS-PAGE, which was performed using polyacrylamide gels whose gel concentration at the distal end in the direction of electrophoresis was set to 3 to 6% and whose gel concentration at the proximal end was set to a higher value than that at the distal end. More specifically, the SDS-PAGE was performed using NuPAGE 4-12% Bris-Tris Gels (IPG well, Mini, 1 mm) produced by Life Technologies. The electrophoresis system used was XCell SureLock Mini-Cell produced by Life Technologies. The electrophoresis was run at a constant voltage of 200 V for about 45 minutes using an electrophoresis buffer composed of 50 mM MOPS, 50 mM Tris base, 0.1% (w/v) SDS and 1 mM EDTA.\nIdentification of antigens by immunoblotting was carried out by taking all the steps up to the step of “Second-dimensional SDS-PAGE” as described above in Example 1, followed by the steps of “Transfer to membrane”, “Immunoblotting” and “Analysis” as described below.\nTo be specific, proteins in the second-dimensional electrophoresis gels were transferred to a membrane (PVDF membrane) according to the following procedure. • (1) The PVDF membrane was immersed in 100% methanol followed by milliQ water, and then moved into the transfer buffer to hydrophilize the PVDF membrane. • (2) After sponge, filter paper, the second-dimensional electrophoresis gels treated by second-dimensional SDS-PAGE, the hydrophilized PVDF membrane, filter paper, and sponge were put in place in this order, the transfer system was energized at a constant voltage of 30 V for one hour. Immunoblotting\nImmunoblotting of the membrane was carried out using, as a primary antibody, a serum sample from patient 1 with a fish allergy or a serum sample from a non-fish-allergic subject. This fish-allergic patient 1 was a patient diagnosed with immediate-type allergy to fish. […]"}, "[4]": {"settings": "serum from fish-allergic patient 2 (FIG. 1B left)"}}, "note": "Where no end group is shown, it is not given here."}
{"substance": "11 (SMVLVKMKEIAEAYL; not fully specified (N-terminus)) [compound 11]", "values": [{"measurement": "Positions of amino acids of region important for binding in epitope", "setting": "[1]", "result": "9-15"}, {"measurement": "epitope cross-reactivity", "setting": "[2]; between fish species", "result": "cross-reactivity between the fish species salmon and bastard halibut"}]}
{"substance": "AMVLVKMKETAEAYL (not fully specified (N-terminus))", "values": [{"measurement": "binding of IgE antibody to peptide", "setting": "[2]", "result": "bound in a patient-specific manner"}]}
{"substance": "Capping protein (actin filament) muscle Z-line beta [Spot 9]", "values": [{"measurement": "spots detected by immunoblotting, different from spots with serum of non-fish-allergic subject", "setting": "[3]; [4]", "result": "detected"}, {"measurement": "specific binding to IgE antibodies from fish-allergic patients", "setting": "[3]", "result": "specific binding to IgE antibodies"}]}
{"substance": "Elongation factor 2 [Spot 4]", "values": [{"measurement": "specific binding to IgE antibodies from fish-allergic patients", "setting": "[3]", "result": "specific binding to IgE antibodies"}]}
{"substance": "Heat shock cognate 70 kDa protein [Spot 5]", "values": [{"measurement": "specific binding to IgE antibodies from fish-allergic patients", "setting": "[3]", "result": "specific binding to IgE antibodies"}]}
{"substance": "L-lactate dehydrogenase A chain-like [Spot 14]", "values": [{"measurement": "spots detected by immunoblotting, different from spots with serum of non-fish-allergic subject", "setting": "[3]; [4]", "result": "newly detected"}, {"measurement": "specific binding to IgE antibodies from fish-allergic patients", "setting": "[3]", "result": "specific binding to IgE antibodies"}]}
{"substance": "Myosin heavy chain, fast skeletal muscle-like [Spot 10]", "values": [{"measurement": "spots detected by immunoblotting, different from spots with serum of non-fish-allergic subject", "setting": "[3]; serum from fish-allergic patient 3 (FIG. 1B right)", "result": "newly detected"}, {"measurement": "specific binding to IgE antibodies from fish-allergic patients", "setting": "[3]", "result": "specific binding to IgE antibodies"}]}
{"substance": "SMVLVKMKEIAEAYL (not fully specified (N-terminus)) [Epitope No. 11]", "values": [{"measurement": "binding of IgE antibody to peptide", "setting": "[2]", "result": "bound in a patient-specific manner"}]}
